The results in this text go back to ChEMBL document CHEMBL1201862, “PubChem BioAssay data set” (2004).

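Protocol summary: plate cells (96-well), add compound at 5 concentrations, incubate 48 h, interpolate endpoints linearly. GI50 marks 50% less growth.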 The source made the active and inactive calls. Rule as the data show it: active = GI50 up to about 1.1 µM and inactive = higher.

Test systems include ACHN; CAKI-1; HOP-62; HT-29; Hs-578T; K562; M14; MCF7; OVCAR-3; OVCAR-4; OVCAR-5; OVCAR-8; SF-268; SF-295; SF-539; SN12C; SNB-75; UACC-257; UO-31.
Holding throughout (assay): NCI tumour cell line growth inhibition, 48 h

For the molecule `c1ccc(CCCNc2nnnc3ccccc23)cc1`, the GI50 was 85.1 µM (inactive) with ACHN; 46.7 µM (inactive) with CAKI-1; > 100 µM (inactive) with HOP-62; > 100 µM (inactive) with HT-29; 34.8 µM (inactive) in the experiment with Hs-578T; 47.5 µM (inactive) in the experiment on K562. Further, the GI50 in the experiment with M14 was > 100 µM (inactive); with MCF7, 46 µM (inactive); in the experiment on OVCAR-3 it was > 100 µM (inactive); with OVCAR-4, 38.9 µM (inactive); with OVCAR-5, > 100 µM (inactive); with OVCAR-8 it was > 100 µM (inactive). Further, the GI50 was > 100 µM (inactive) in the experiment on SF-268; 44.2 µM (inactive) with SF-295; 57 µM (inactive) in the experiment on SF-539; > 100 µM (inactive) in the experiment with SN12C; > 100 µM (inactive) in the experiment with SNB-75; 67.6 µM (inactive) with UACC-257.
`O=[N+]([O-])c1cccnc1-n1cnc2ccccc21`: the GI50 with CAKI-1, in the experiment with HOP-62, with HT-29, in the experiment with Hs-578T, in the experiment on K562 and in the experiment on M14 was > 100 µM (inactive) throughout. Moreover, the GI50 was > 100 µM (inactive) with MCF7; 54.6 µM (inactive) in the experiment with OVCAR-3; > 100 µM (inactive) in the experiment with OVCAR-4; > 100 µM (inactive) in the experiment with OVCAR-5; > 100 µM (inactive) in the experiment with OVCAR-8; > 100 µM (inactive) with SF-268. In addition, the GI50 in the experiment on SF-295, with SF-539, in the experiment with SNB-75 and in the experiment on UACC-257 was > 100 µM (inactive) each time.
`O=C(Cn1c(C(=O)c2ccccc2)nc2ccccc21)c1ccccc1`: the GI50 is > 100 µM (inactive) in the experiment on ACHN; > 100 µM (inactive) in the experiment on CAKI-1; 26.5 µM (inactive) in the experiment on HOP-62; 19.2 µM (inactive) in the experiment with HT-29; 30.5 µM (inactive) in the experiment with Hs-578T; > 100 µM (inactive) with M14. The GI50 in the experiment on MCF7 is > 100 µM (inactive); in the experiment with OVCAR-3 it was > 100 µM (inactive); in the experiment with OVCAR-4, 96.8 µM (inactive); in the experiment with OVCAR-5, > 100 µM (inactive); with OVCAR-8 it was > 100 µM (inactive); with SF-268, > 100 µM (inactive). In addition, the GI50 was 67 µM (inactive) in the experiment with SF-295; > 100 µM (inactive) with SF-539; > 100 µM (inactive) in the experiment with SN12C; > 100 µM (inactive) in the experiment on SNB-75; > 100 µM (inactive) in the experiment on UACC-257; > 56.1 µM (inactive) in the experiment on UO-31.
Take `CCCCCCCCCc1cc(-c2ccc(C=O)s2)sc1-c1ccc(C=O)s1`: the GI50 in the experiment on ACHN was 30.7 µM (inactive); in the experiment with HOP-62, 27.7 µM (inactive); in the experiment on HT-29 it was 39.5 µM (inactive); in the experiment on Hs-578T it was 17.9 µM (inactive); in the experiment with K562 it was 3.56 µM (inactive); with M14, 8.47 µM (inactive). Moreover, the GI50 in the experiment with MCF7 is 14.3 µM (inactive); in the experiment with OVCAR-3, 16.7 µM (inactive); in the experiment on OVCAR-4, 24.4 µM (inactive); in the experiment on OVCAR-5, 29.5 µM (inactive); in the experiment on OVCAR-8, 10.4 µM (inactive); in the experiment on SF-268 it was 34.8 µM (inactive). In addition, the GI50 is 32.7 µM (inactive) with SF-295; 41.1 µM (inactive) in the experiment on SF-539; 32.5 µM (inactive) in the experiment on SN12C; 27 µM (inactive) in the experiment on SNB-75; 13.6 µM (inactive) with UACC-257; 17.7 µM (inactive) in the experiment with UO-31.
Turning to `C1CCN2CC3CCCN4CCCC(C2C1)C34` (stereo unspecified), the GI50 in the experiment on ACHN, in the experiment on CAKI-1, in the experiment with HOP-62, in the experiment with HT-29, in the experiment on Hs-578T and with K562 was > 100 µM (inactive) each time. In addition, the GI50 with M14, with MCF7, in the experiment with OVCAR-3, in the experiment on OVCAR-5, in the experiment on OVCAR-8 and in the experiment with SF-268 was > 100 µM (inactive) in each case. In addition, the GI50 in the experiment with SF-295 was > 100 µM (inactive); in the experiment on SF-539 it was > 100 µM (inactive); in the experiment with SN12C it was > 100 µM (inactive); in the experiment on SNB-75 it was 50.1 µM (inactive); in the experiment with UACC-257, > 100 µM (inactive).
`COc1ccc(C(O)c2ccccn2)cc1` (stereo unspecified): the GI50 with ACHN, in the experiment on CAKI-1, with HOP-62, with HT-29, in the experiment on Hs-578T and in the experiment with K562 was > 100 µM (inactive) each time. Besides, the GI50 with M14, with MCF7, with OVCAR-3, in the experiment on OVCAR-4, with OVCAR-5 and in the experiment with OVCAR-8 was > 100 µM (inactive) in each case. Besides, the GI50 in the experiment with SF-268, with SF-295, in the experiment with SF-539, in the experiment on SN12C, in the experiment with SNB-75 and in the experiment on UACC-257 was > 100 µM (inactive) in each case.
Take `N#CC1(C#N)C2CCCCC23OC(=N)C1(C#N)C(c1ccccc1)O3` (stereo unspecified): the GI50 with ACHN was 36.1 µM (inactive); in the experiment with CAKI-1, 10.8 µM (inactive); in the experiment on HT-29, 18.2 µM (inactive); with Hs-578T, 0.302 µM (active); in the experiment on K562, 7.11 µM (inactive); in the experiment on M14, 12.7 µM (inactive). Further, the GI50 with MCF7 is 16.6 µM (inactive); with OVCAR-3, 13.6 µM (inactive); in the experiment on OVCAR-5, 21.2 µM (inactive); in the experiment with OVCAR-8 it was 21 µM (inactive); in the experiment on SF-268, 2.49 µM (inactive); in the experiment on SF-295 it was 69 µM (inactive). The GI50 with SF-539 was 17.1 µM (inactive); in the experiment on SN12C, 13.1 µM (inactive); in the experiment on SNB-75, 0.213 µM (active); in the experiment with UACC-257, 18 µM (inactive); in the experiment on UO-31, 34.8 µM (inactive).
For the molecule `O=[N+]([O-])c1ccc(O)c(/C=N/CC2CCCN3CCCCC23)c1` (stereo unspecified), the GI50 was 26.9 µM (inactive) in the experiment on ACHN; 57.7 µM (inactive) with CAKI-1; 83.4 µM (inactive) in the experiment with HOP-62; 35.6 µM (inactive) in the experiment with HT-29; 16.9 µM (inactive) in the experiment with Hs-578T; 19.6 µM (inactive) in the experiment on M14. Further, the GI50 was 46.8 µM (inactive) with MCF7; 31 µM (inactive) with OVCAR-3; 31.7 µM (inactive) in the experiment with OVCAR-5; 30.8 µM (inactive) with OVCAR-8; 21.3 µM (inactive) in the experiment with SF-268; 31.2 µM (inactive) in the experiment on SF-295. Besides, the GI50 is 25.6 µM (inactive) in the experiment with SF-539, 23.7 µM (inactive) in the experiment on SNB-75, 32.5 µM (inactive) in the experiment with UACC-257 and 34.8 µM (inactive) in the experiment on UO-31.
In the case of `C[C@@H](NC(C#N)c1ccco1)c1ccccc1` (stereo partly specified), the GI50 in the experiment on ACHN, in the experiment on HOP-62, in the experiment with HT-29, in the experiment on Hs-578T, in the experiment with K562 and in the experiment on M14 was > 100 µM (inactive) throughout. The GI50 with MCF7, in the experiment on OVCAR-3, with OVCAR-5, in the experiment with OVCAR-8, with SF-268 and with SF-295 was > 100 µM (inactive) in each case. For the same molecule, the GI50 in the experiment on SF-539, in the experiment on SN12C, in the experiment with SNB-75, with UACC-257 and with UO-31 was > 100 µM (inactive) each time.
For the molecule `CC(=O)C1C(=O)C(=O)N(c2ccc([N+](=O)[O-])cc2[N+](=O)[O-])C1=O` (stereo unspecified), the GI50 with ACHN, with CAKI-1, in the experiment on HOP-62, in the experiment on HT-29, in the experiment on Hs-578T and in the experiment with M14 was > 100 µM (inactive) throughout. Also, the GI50 in the experiment on MCF7, in the experiment with OVCAR-3, with OVCAR-4, with OVCAR-5, with OVCAR-8 and in the experiment with SF-268 was > 100 µM (inactive) each time. The GI50 with SF-295 is > 100 µM (inactive); in the experiment with SF-539, > 100 µM (inactive); with SN12C, > 100 µM (inactive); in the experiment with SNB-75, > 100 µM (inactive); in the experiment on UACC-257, > 100 µM (inactive); with UO-31 it was 59.3 µM (inactive).
As to `Nc1ccc2c(c1)Cc1ccccc1-2`, the GI50 with ACHN is 95.1 µM (inactive); in the experiment with CAKI-1 it was 88.3 µM (inactive); with HOP-62 it was 60 µM (inactive); in the experiment on HT-29, > 100 µM (inactive); in the experiment with Hs-578T it was > 100 µM (inactive); with K562, 84.1 µM (inactive). Also, the GI50 with M14 is > 100 µM (inactive); in the experiment on MCF7, > 100 µM (inactive); in the experiment on OVCAR-3 it was 45.4 µM (inactive); in the experiment with OVCAR-4, > 100 µM (inactive); in the experiment with OVCAR-5 it was > 100 µM (inactive); in the experiment with OVCAR-8, > 100 µM (inactive). In addition, the GI50 was > 100 µM (inactive) in the experiment with SF-295; 73.6 µM (inactive) with SF-539; > 100 µM (inactive) with SN12C; 31.6 µM (inactive) in the experiment with SNB-75; > 100 µM (inactive) with UACC-257; 19.5 µM (inactive) in the experiment on UO-31.
